Where a SMILES comes first, the peptide text is derived from it. Bridges are numbered along the chain shown (N, C = ends). [ ]: non-standard residue; d: D form. ξ: configuration not given here. Trp(1-CH2COOH) = N[C@@H](Cc1cn(CC(=O)O)c2ccccc12)C(=O)O; Trp(βS-Me) = C[C@@H](c1c[nH]c2ccccc12)[C@H](N)C(=O)O; Phe(3,4,5-F3) = N[C@@H](Cc1cc(F)c(F)c(F)c1)C(=O)O; NMePhe(4-F) = CN[C@@H](Cc1ccc(F)cc1)C(=O)O; d(cisHyp) = O=C(O)[C@H]1C[C@@H](O)CN1; Bta = N[C@@H](Cc1csc2ccccc12)C(=O)O; Hyp = O=C(O)[C@@H]1C[C@@H](O)CN1; NMeF = CN[C@@H](Cc1ccccc1)C(=O)O; dHyp = O=C(O)[C@H]1C[C@H](O)CN1; NMeNle = CCCC[C@H](NC)C(=O)O; NMeM = CN[C@@H](CCSC)C(=O)O; Pip = O=C(O)[C@@H]1CCCCN1; dPip = O=C(O)[C@H]1CCCCN1; NMeA = CN[C@@H](C)C(=O)O; Orn = NCCC[C@H](N)C(=O)O; Dab = NCC[C@H](N)C(=O)O; Dap = NC[C@H](N)C(=O)O; ξC = NC(CS)C(=O)O
molecular target: T1, Human PD-L1/PD-1 (Homo sapiens, UniProt Q9NZQ7); assay: HTRF Human PD-L1/PD-1 binding assay (PD-1-Ig/PD-L1-His); conditions: PD-L1-His 10 nM, PD-1-Ig 20 nM; class symbol; read-out: HTRF Human PD-L1/PD-1 Binding Assay IC50 Range
T1 construct: TVMV protease cleavage site (C); made in house; host or cells: HEK293T cells
Outline: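 HTRF competition using HEK293T-expressed human PD-1(25-167)-Ig at 20 nM and PD-L1(18-239)-His at 10 nM, compound incubated first with PD-L1 for 15 min, then with PD-1 for 15 min. Signal read as 665/620 nm ratio 30 min after adding Eu anti-Ig and APC anti-His antibodies.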

T1 sequence (Q9NZQ7 with tags, fused parts or gaps): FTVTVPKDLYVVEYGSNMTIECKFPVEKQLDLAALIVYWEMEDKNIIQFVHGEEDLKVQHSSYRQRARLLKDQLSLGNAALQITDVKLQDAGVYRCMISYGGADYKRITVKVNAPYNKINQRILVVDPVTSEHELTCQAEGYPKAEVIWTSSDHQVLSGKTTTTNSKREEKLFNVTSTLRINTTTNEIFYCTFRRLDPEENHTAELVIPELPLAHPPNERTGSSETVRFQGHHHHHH

Row | IC50 [nM] | Compound
1 | 1000 to 10000 | CSCC[C@H]1C(=O)N2C[C@H](O)C[C@H]2C(=O)N[C@@H](CC(=O)O)C(=O)N[C@@H](C(C)C)C(=O)N(C)[C@@H](Cc2ccccc2)C(=O)N[C@@H](Cc2ccc(O)cc2)C(=O)N2C[C@H](O)C[C@H]2C(=O)N[C@@H](Cc2c[nH]c3ccccc23)C(=O)N[C@@H](Cc2ccc(O)cc2)C(=O)N[C@@H](CC(C)C)C(=O)N[C@H](C(=O)NCC(N)=O)CSCC(=O)N[C@@H](Cc2ccccc2)C(=O)N(C)[C@@H](Cc2ccccc2)C(=O)N1C [Example 9166] ({CH2CO}-F[NMeF][NMeM][Hyp]DV[NMeF]Y[Hyp]WYLCG-NH2; thioether N-13)
2 | 1 to 9.9 | CCCC[C@H]1C(=O)N(C)[C@@H](CCCC)C(=O)N[C@@H](CCCNC(=N)N)C(=O)N[C@H](C(N)=O)CSCC(=O)N[C@@H](Cc2ccc(O)cc2)C(=O)N(C)[C@@H](C)C(=O)N[C@@H](CC(N)=O)C(=O)N2CCC[C@H]2C(=O)N[C@@H](CC(N)=O)C(=O)N[C@@H](CC(C)C)C(=O)N2C[C@H](O)C[C@H]2C(=O)N[C@@H]([C@@H](C)c2c[nH]c3ccccc23)C(=O)N[C@@H](CO)C(=O)N[C@@H](Cc2c[nH]c3ccccc23)C(=O)N1C [Example 10531] ({CH2CO}-Y[NMeA]NPNL[Hyp][Trp(βS-Me)]SW[NMeNle][NMeNle]RC-NH2; thioether N-14)
3 | 1 to 9.9 | CCCC[C@H]1C(=O)N(C)[C@@H](CCCC)C(=O)N[C@@H](CC(C)C)C(=O)N[C@H](C(=O)NCC(N)=O)CSCC(=O)N[C@@H](Cc2ccc(O)cc2)C(=O)N(C)[C@@H](C)C(=O)N[C@@H](CC(N)=O)C(=O)N(C)[C@@H](C)C(=O)N[C@@H](Cc2cnc[nH]2)C(=O)N[C@@H](CCC(N)=O)C(=O)N2C[C@H](O)C[C@H]2C(=O)N[C@@H](Cc2c[nH]c3ccccc23)C(=O)N[C@@H](CO)C(=O)N[C@@H](Cc2c[nH]c3ccccc23)C(=O)N1C [Example 5234] ({CH2CO}-Y[NMeA]N[NMeA]HQ[Hyp]WSW[NMeNle][NMeNle]LCG-NH2; thioether N-14)
4 | 1 to 9.9 | CCCC[C@H]1C(=O)N(C)[C@@H](CCCC)C(=O)N[C@@H](CCC(=O)O)C(=O)N[C@H](C(=O)NCC(N)=O)CSCC(=O)N[C@@H](Cc2ccc(O)cc2)C(=O)N(C)[C@@H](C)C(=O)N[C@@H](CC(=O)O)C(=O)N2CCC[C@H]2C(=O)N[C@@H](CO)C(=O)N[C@@H](CC(C)C)C(=O)N2C[C@H](O)C[C@H]2C(=O)N[C@@H](Cc2c[nH]c3ccccc23)C(=O)N[C@@H](CCN)C(=O)N[C@@H](Cc2cn(CC(=O)O)c3ccccc23)C(=O)N1C [Example 6135] ({CH2CO}-Y[NMeA]DPSL[Hyp]W[Dab][Trp(1-CH2COOH)][NMeNle][NMeNle]ECG-NH2; thioether N-14)
5 | 1 to 9.9 | CCCC[C@H]1C(=O)N(C)[C@@H](CCCC)C(=O)N[C@@H](CCC(=O)O)C(=O)NC(C(=O)NCC(N)=O)CSCC(=O)N[C@@H](Cc2ccc(O)cc2)C(=O)N(C)[C@@H](C)C(=O)N[C@@H](CC(N)=O)C(=O)N2CCC[C@H]2C(=O)N[C@@H](CC(N)=O)C(=O)N[C@@H](CC(C)C)C(=O)N2CCC[C@H]2C(=O)N[C@@H](Cc2c[nH]c3ccccc23)C(=O)N[C@@H](CCN)C(=O)N[C@@H](Cc2c[nH]c3ccccc23)C(=O)N1C (some centres unmarked) [Example 9180] ({CH2CO}-Y[NMeA]NPNLPW[Dab]W[NMeNle][NMeNle]E[ξC]G-NH2; thioether N-14)
6 | 100 to 990 | CCCC[C@H]1C(=O)N(C)[C@@H](CCCC)C(=O)N[C@@H](CCC(=O)O)C(=O)NC(C(=O)NCC(N)=O)CSCC(=O)N[C@@H](Cc2ccc(O)cc2)C(=O)N(C)[C@@H](C)C(=O)N[C@@H](CC(N)=O)C(=O)N2CCC[C@H]2C(=O)N[C@@H](CC(N)=O)C(=O)N[C@@H](CC(C)C)C(=O)N2C[C@H](O)C[C@H]2C(=O)N[C@@H](Cc2c[nH]c3ccccc23)C(=O)N[C@@H](CN)C(=O)N[C@@H](Cc2c[nH]c3ccccc23)C(=O)N1C (some centres unmarked) [Example 9177] ({CH2CO}-Y[NMeA]NPNL[Hyp]W[Dap]W[NMeNle][NMeNle]E[ξC]G-NH2; thioether N-14)
7 | 1 to 9.9 | CCCC[C@H]1C(=O)N2C[C@@H](O)C[C@@H]2C(=O)N[C@@H](CC(=O)O)C(=O)N[C@@H](C(C)C)C(=O)N(C)[C@@H](Cc2ccccc2)C(=O)N[C@@H](CCC(=O)O)C(=O)N2C[C@@H](O)C[C@@H]2C(=O)N[C@@H](Cc2c[nH]c3ccccc23)C(=O)N[C@@H](Cc2ccc(O)cc2)C(=O)N[C@@H](CCCN)C(=O)N[C@H](C(=O)NCC(N)=O)CSCC(=O)N[C@@H](Cc2cc(F)c(F)c(F)c2)C(=O)N(C)[C@@H](Cc2ccccc2)C(=O)N1C [Example 9276] ({CH2CO}-[Phe(3,4,5-F3)][NMeF][NMeNle][dHyp]DV[NMeF]E[dHyp]WY[Orn]CG-NH2; thioether N-13)
8 | 1 to 9.9 | CCCC[C@H]1C(=O)N2C[C@H](O)C[C@@H]2C(=O)N[C@@H](CC(=O)O)C(=O)N[C@@H](C(C)C)C(=O)N(C)[C@@H](Cc2ccccc2)C(=O)N[C@@H](CC(N)=O)C(=O)N2C[C@H](O)C[C@@H]2C(=O)N[C@@H](Cc2c[nH]c3ccccc23)C(=O)N[C@@H](Cc2ccc(O)cc2)C(=O)N[C@@H](CC(C)C)C(=O)N[C@H](C(=O)NCC(N)=O)CSCC(=O)N[C@@H](Cc2cc(F)c(F)c(F)c2)C(=O)N(C)[C@@H](Cc2ccccc2)C(=O)N1C [Example 9361] ({CH2CO}-[Phe(3,4,5-F3)][NMeF][NMeNle][d(cisHyp)]DV[NMeF]N[d(cisHyp)]WYLCG-NH2; thioether N-13)
9 | 1 to 9.9 | CCCC[C@H]1C(=O)N(C)[C@@H](CCCC)C(=O)N[C@@H](CC(C)C)C(=O)N[C@H](C(=O)NCC(N)=O)CSCC(=O)N[C@@H](Cc2ccc(O)cc2)C(=O)N2CCCC[C@H]2C(=O)N[C@@H](CC(N)=O)C(=O)N2CCC[C@H]2C(=O)N[C@@H](CN)C(=O)N[C@@H](CCC(=O)O)C(=O)N2C[C@H](O)C[C@H]2C(=O)N[C@@H](Cc2c[nH]c3ccccc23)C(=O)N[C@@H](CCN)C(=O)N[C@@H](Cc2cn(CC(=O)O)c3ccccc23)C(=O)N1C [Example 1299] ({CH2CO}-Y[Pip]NP[Dap]E[Hyp]W[Dab][Trp(1-CH2COOH)][NMeNle][NMeNle]LCG-NH2; thioether N-14)
10 | 1 to 9.9 | CCCC[C@H]1C(=O)N2C[C@@H](O)C[C@@H]2C(=O)N[C@@H](CC(=O)O)C(=O)N[C@@H](C(C)C)C(=O)N(C)[C@@H](Cc2ccccc2)C(=O)N[C@@H](CCC(=O)O)C(=O)N2CCCC[C@@H]2C(=O)N[C@@H](Cc2c[nH]c3ccccc23)C(=O)N[C@@H](Cc2ccc(O)cc2)C(=O)N[C@@H](CC(C)C)C(=O)N[C@H](C(=O)NCC(N)=O)CSCC(=O)N[C@@H](Cc2cc(F)c(F)c(F)c2)C(=O)N(C)[C@@H](Cc2ccc(F)cc2)C(=O)N1C [Example 10556] ({CH2CO}-[Phe(3,4,5-F3)][NMePhe(4-F)][NMeNle][dHyp]DV[NMeF]E[dPip]WYLCG-NH2; thioether N-13)

same assay, conditions: PD-L1-His 10 nM, PD-1-Ig 20 nM; read-out: HTRF Human PD-L1/PD-1 Binding Assay IC50

Row | IC50 [nM] | Compound
11 | 27 | CCCC[C@H]1C(=O)N(C)[C@@H](C)C(=O)N[C@@H](CCCNC(=N)N)C(=O)NC(C(=O)NCC(N)=O)CSCC(=O)N[C@@H](Cc2ccc(O)cc2)C(=O)N(C)[C@@H](C)C(=O)N[C@@H](CC(N)=O)C(=O)N2CCC[C@H]2C(=O)N[C@@H](Cc2cnc[nH]2)C(=O)N[C@H](CO)C(=O)N2CCC[C@H]2C(=O)N[C@@H](Cc2c[nH]c3ccccc23)C(=O)N[C@@H](CO)C(=O)N[C@@H](Cc2csc3ccccc23)C(=O)N1C (some centres unmarked) [Example 9118] ({CH2CO}-Y[NMeA]NPH[dS]PWS[Bta][NMeNle][NMeA]R[ξC]G-NH2; thioether N-14)

Source: patent US10538555B2, “Macrocyclic inhibitors of the PD-1/PD-L1 and CD80(B7-1)/PD-L1 protein/protein interactions” (BRISTOL-MYERS SQUIBB COMPANY, priority 2014, dated 2020)
